How the values were obtained:
[1] = target: T1, CaSR de rat (Rattus norvegicus, UniProt P48442); experiment: Accumulation of tritiated inositol phosphates ([3H]IP) in transfected CHO(CaSR) cells; format: cell-based; details: compound 10 µM; for activation at 10 µM: read-out: Accumulation d'(^3H)-IP % de la réponse 10mM Ca^2+ ± E.S.; for Accumulation d'(^3H)-IP % du taux basal. CHO (CaSR) / activity at 10 µM: basal level in presence of 2 mM Ca^2+ = 100 %; for activity at 10 µM: read-out: Accumulation d'(^3H)-IP % du taux basal. CHO (CaSR)
T1 construct: expressed in transfected cells; host or cells: CHO (Chinese hamster ovary) cells, line CHO(CaSR)
T1 sequence (P48442 20-1079): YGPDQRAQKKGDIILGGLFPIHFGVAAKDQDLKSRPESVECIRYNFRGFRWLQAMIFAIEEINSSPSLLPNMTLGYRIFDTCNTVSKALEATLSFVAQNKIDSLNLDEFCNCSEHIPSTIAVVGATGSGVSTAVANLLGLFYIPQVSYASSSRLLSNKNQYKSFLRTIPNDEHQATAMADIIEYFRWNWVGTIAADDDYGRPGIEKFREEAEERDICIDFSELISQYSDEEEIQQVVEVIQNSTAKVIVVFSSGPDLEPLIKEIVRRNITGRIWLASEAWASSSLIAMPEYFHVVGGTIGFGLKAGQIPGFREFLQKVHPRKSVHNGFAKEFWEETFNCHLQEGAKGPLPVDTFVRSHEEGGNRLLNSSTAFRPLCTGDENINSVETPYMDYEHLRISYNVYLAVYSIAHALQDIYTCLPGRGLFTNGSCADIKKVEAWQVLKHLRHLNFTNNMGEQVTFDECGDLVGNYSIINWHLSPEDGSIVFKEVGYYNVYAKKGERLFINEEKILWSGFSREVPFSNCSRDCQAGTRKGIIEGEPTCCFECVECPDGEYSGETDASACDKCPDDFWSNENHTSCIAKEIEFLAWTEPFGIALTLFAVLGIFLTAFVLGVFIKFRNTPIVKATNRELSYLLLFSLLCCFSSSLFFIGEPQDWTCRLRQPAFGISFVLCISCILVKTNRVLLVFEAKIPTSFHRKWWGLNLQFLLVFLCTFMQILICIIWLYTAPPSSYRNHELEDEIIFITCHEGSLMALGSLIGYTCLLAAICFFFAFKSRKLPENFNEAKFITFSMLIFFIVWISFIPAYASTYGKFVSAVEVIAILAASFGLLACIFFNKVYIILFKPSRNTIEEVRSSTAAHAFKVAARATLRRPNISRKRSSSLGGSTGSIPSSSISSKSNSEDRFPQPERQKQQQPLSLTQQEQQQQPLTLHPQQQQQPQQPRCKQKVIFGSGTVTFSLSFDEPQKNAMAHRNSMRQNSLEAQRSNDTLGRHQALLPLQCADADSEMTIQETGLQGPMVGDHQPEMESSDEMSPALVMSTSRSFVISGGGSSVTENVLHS
Excerpt: L'ADN complémentaire codant pour le CaSR de rat a été isolé à partir d'une banque ADNc de striatum de rat (Ruat et al, Proc. Natl. Acad. Sci., 1995). Ce récepteur est identique au niveau de sa séquence en acides aminés à celui exprimé dans les autres tissus. Des cellules ovariennes de hamster chinois (CHO) transfectées exprimant le CaSR de rat (CHO(CaSR)) ont été caractérisées et les signaux chimiques (seconds messagers) induits par l'activation de ce récepteur ont été analysés. Ainsi, un test biochimique permettant de mesurer l'accumulation d'inositols phosphates tritiés [^3H]IP en réponse à l'activation du récepteur a été mis au point (Ruat et al, J. Biol. Chem., 1996; Ferry et al, Biochem. Biophys. Res. Commun., 1997).
L'activité calcimimétique des composés a été estimée en mesurant l'accumulation d'inositols phosphates tritiés induite par 10 µM de chacun des composés en présence de 2 mM de Ca^2+ dans les cellules CHO(CaSR) (Ferry et al, Biochem Biophys Res Commun, 1997).
Cette activation a été comparée à celle induite par le composé NPS-R- 568, un calcimimétique de référence et utilisé à une concentration de 10 µM (Tableau 1) (Ferry et al, Biochem Biophys Res Commun, 1997; Nemeth et al, Proc Natl Acad Sci USA, 1997).
Dans le tableau 1, l'activité calcimimétique des composés PHD est comparée à celle d'un composé de référence, le NPS-R-568 utilisé à la même concentration et dans les mêmes conditions expérimentales. Cette activité est exprimée en pourcentage de l'activité de 10 mM de Ca^2+. Les moyennes ± erreurs standards de 2 à 5 manipulations indépendantes sont indiquées. Les expériences ont été réalisées en présence de 2 mM de Ca^2+.
(§1) L'accumulation d'inositols phosphates tritiés est exprimée en pourcentage du taux de base observé en présence de 2 mM Ca^2+ (100 %) dans les cellules CHO(WT*) ou CHO(CaSR).

[2] = test system: cellules CHO(WT*); experiment: Specificity control: [3H]IP accumulation in CHO(WT*) control cells transfected with the plasmid alone, not expressing CaSR; format: cell-based, hamster chinois; details: compound 10 µM, basal level in presence of 2 mM Ca^2+ = 100 %; for activity at 10 µM: read-out: Accumulation d'(^3H)-IP % du taux basal. CHO (WT*)
Protocol: Les molécules PHD, utilisées à une concentration de 10 µM ne conduisent pas ou peu à l'accumulation d'[^3H]IP dans des cellules CHO(WT*) témoins ce qui suggère leur spécificité d'action vis-à-vis du CaSR (Tableau 2). Les cellules CHO(WT*) ont été tranfectées avec le plasmide seul et n'expriment pas le CaSR.
as §1

[3] = in presence of 2 mM Ca^2+, mean ± standard error of 2 to 5 independent experiments

| activation at 10 µM [1, 3] | Structure (SMILES) | other results |
| --- | --- | --- |
| 78 ± 6% | CC(NCC(Cc1ccccc1)NCc1cccc(Cl)c1)c1cccc2ccccc12 (centres unmarked) [PHD 312] | Accumulation d'(^3H)-IP % du taux basal. CHO (CaSR) [1]: une forte accumulation; activity at 10 µM [1]: 383 ± 39%; Accumulation d'(^3H)-IP % du taux basal. CHO (WT*) [2]: peu ou pas d'accumulation; activity at 10 µM [2]: 121 ± 6% |
| 29 ± 13% | CC(NS(=O)(=O)c1ccc2ccccc2c1)c1cccc2ccccc12 (centres unmarked) [PHD 317] |  |
| 57 ± 6% | CC(NCC(Cc1ccccc1)NS(C)(=O)=O)c1cccc2ccccc12 (centres unmarked) [PHD 322] |  |
| 97 ± 13% | COc1ccc(S(=O)(=O)NC(CNC(C)c2cccc3ccccc23)Cc2ccccc2)cc1OC (centres unmarked) [PHD 321, N^2(3,4-diméthoxybenzènesulfonyl)-N^1[1-(1-naphtyl)éthyl]-3-phénylpropane-1,2-diamine] | Accumulation d'(^3H)-IP % du taux basal. CHO (CaSR) [1]: une forte accumulation; activity at 10 µM [1]: 446 ± 22%; Accumulation d'(^3H)-IP % du taux basal. CHO (WT*) [2]: peu ou pas d'accumulation; activity at 10 µM [2]: 124 ± 4% |
| 48 ± 9% | CC(NCC(Cc1ccccc1)NS(=O)(=O)c1ccccc1C(F)(F)F)c1cccc2ccccc12 (centres unmarked) [PHD 306] |  |
| 29 ± 2% | CC(NCC(Cc1ccccc1)NS(=O)(=O)c1ccc(C(F)(F)F)cc1)c1cccc2ccccc12 (centres unmarked) [PHD 304] |  |
| 79 ± 10% | CC(NCC(Cc1ccccc1)NS(=O)(=O)c1ccccc1Cl)c1cccc2ccccc12 (centres unmarked) [PHD 301] | Accumulation d'(^3H)-IP % du taux basal. CHO (CaSR) [1]: une forte accumulation; activity at 10 µM [1]: 304 ± 18%; Accumulation d'(^3H)-IP % du taux basal. CHO (WT*) [2]: peu ou pas d'accumulation; activity at 10 µM [2]: 119 ± 6% |
| 45 ± 3% | COc1ccc(S(=O)(=O)NCCNC(C)c2cccc3ccccc23)cc1 (centres unmarked) [PHD 288] |  |
| 34 ± 2% | CC(NCC(Cc1ccccc1)NS(=O)(=O)c1ccc2ccccc2c1)c1cccc2ccccc12 (centres unmarked) [PHD 318] |  |
| 90 ± 8% | CC(NCC(Cc1ccccc1)NCc1ccccc1F)c1cccc2ccccc12 (centres unmarked) [PHD 323] |  |
| 95 ± 4% | CC(NCC(Cc1ccccc1)NCc1ccc(F)cc1)c1cccc2ccccc12 (centres unmarked) [PHD 320] |  |
| 78 ± 1% | CC(NCC(Cc1ccccc1)NS(=O)(=O)c1cccs1)c1cccc2ccccc12 (centres unmarked) [PHD 316] |  |
| 31 ± 7% | CC(NCC(Cc1ccccc1)NS(=O)(=O)c1cccc2ccccc12)c1cccc2ccccc12 (centres unmarked) [PHD 319] |  |

Further lines, the molecule ahead of its results:

| Structure (SMILES) | activation at 10 µM [1, 3] | other results |
| --- | --- | --- |
| COc1ccc(S(=O)(=O)NC(CNC(C)c2cccc3ccccc23)Cc2ccccc2OC)cc1 (centres unmarked) [PHD 230] | 65 ± 2% |  |
| CC(NCC(Cc1ccccc1)NS(=O)(=O)c1ccc(N)cc1)c1ccccc1 (centres unmarked) [PHD 125] | 2 ± 4% |  |
| C[C@@H](NCC(Cc1ccccc1)NS(=O)(=O)c1ccc([N+](=O)[O-])cc1)c1ccccc1 (single isomer, unassigned) [PHD 127 B] |  | Accumulation d'(^3H)-IP % de la réponse 10mM Ca^2+ ± E.S. [1, 3]: 13 ± 3% |
| Cc1ccc(S(=O)(=O)NC(CNC(C)c2cccc3ccccc23)Cc2ccccc2)cc1 (centres unmarked) [PHD 181] | 68 ± 9% |  |
| COc1cccc([C@@H](C)NCC(Cc2ccccc2)NS(=O)(=O)c2ccc(C)cc2)c1 (some centres unmarked) [PHD 182] | 36 ± 12% |  |
| CC(NCC(Cc1ccccc1)NS(=O)(=O)c1ccccc1)c1cccc2ccccc12 (centres unmarked) [PHD 202] | 78 ± 10% |  |
| CC(NCC(Cc1ccccc1)NS(=O)(=O)c1ccc(Cl)cc1)c1cccc2ccccc12 (centres unmarked) [PHD 203] | 38 ± 20% |  |
| Cc1ccc(S(=O)(=O)NC(CNC(C)c2cccc3ccccc23)c2ccccc2)cc1 (centres unmarked) [PHD 176 B] | 31 ± 3% |  |
| COc1ccc(S(=O)(=O)NC(CN[C@H](C)c2cccc(OC)c2)Cc2ccccc2)cc1 (some centres unmarked) [PHD 217] | 34 ± 5% |  |
| Cc1ccc(S(=O)(=O)NCC(NC(C)c2cccc3ccccc23)c2ccccc2)cc1 (centres unmarked) [PHD 176 A] | 6 ± 1% |  |
| COc1ccc(S(=O)(=O)NC(CNC(C)c2cccc3ccccc23)Cc2cccc(C)c2OC)cc1 (centres unmarked) [PHD 235] | 37 ± 5% |  |
| C[C@@H](NCC(Cc1ccccc1)NS(=O)(=O)c1ccc([N+](=O)[O-])cc1)c1ccccc1 (single isomer, unassigned) [PHD 127 A] | 12 ± 5% |  |
| COc1ccc(S(=O)(=O)NC(C)CNC(C)c2cccc3ccccc23)cc1 (centres unmarked) [PHD 280] | 30 ± 2% |  |
| Cc1ccc(S(=O)(=O)NC(CNC(C)c2ccccc2)Cc2ccccc2)cc1 (centres unmarked) [PHD 121] | 23 ± 15% |  |
| CC(NCC(N)Cc1ccccc1)c1ccccc1 (centres unmarked) [PHD 90] | 3 ± 2% |  |
| COc1ccc(CC(CNC(C)c2cccc3ccccc23)NS(=O)(=O)c2ccc(OC)cc2)cc1 (centres unmarked) [PHD 267] | 45 ± 1% |  |
| COc1ccc(S(=O)(=O)NC(CNC(C)c2cccc3ccccc23)Cc2ccccc2)cc1 (centres unmarked) [PHD 206] | 80 ± 12% |  |
| COc1cccc([C@@H](C)NCC(NS(=O)(=O)c2ccc(C)cc2)c2ccccc2)c1 (some centres unmarked) [PHD 178 B] | 22 ± 10% |  |
| COc1ccc(S(=O)(=O)NC(CCc2ccccc2)CNC(C)c2cccc3ccccc23)cc1 (centres unmarked) [PHD 218] | 39 ± 1% |  |
| COc1ccc(S(=O)(=O)NC(CNC(C)c2cccc3ccccc23)Cc2ccc3c(c2)OCO3)cc1 (centres unmarked) [PHD 271] | 47 ± 2% |  |
| CC(NCC(Cc1ccccc1)NS(=O)(=O)c1ccc([N+](=O)[O-])cc1)c1ccccc1 (centres unmarked) [PHD 87] | 8 ± 4% |  |
| CC(NCC(Cc1ccccc1)NS(=O)(=O)c1ccc([N+](=O)[O-])cc1)c1cccc2ccccc12 (centres unmarked) [PHD 124] | 27 ± 11% |  |
| CC(NCC(Cc1ccccc1)NCc1ccccc1)c1cccc2ccccc12 (centres unmarked) [PHD 285] | 80 ± 8% |  |
| COc1cccc([C@@H](C)NC(CNS(=O)(=O)c2ccc(C)cc2)c2ccccc2)c1 (some centres unmarked) [PHD 178 A] | 6 ± 6% |  |
| COc1ccc(S(=O)(=O)NC(CNC(C)c2cccc3ccccc23)Cc2ccccc2Cl)cc1 (centres unmarked) [PHD 242] | 60 ± 4% |  |

— patent EP1235797B1, “ARALKYL-1,2-DIAMINES HAVING CALCIMIMETIC ACTIVITY AND PREPARATION MODE” (CENTRE NATIONAL DE LA RECHERCHE SCIENTIFIQUE (CNRS), priority 1999, dated 2001)
